Tests used:
[1] = molecular target: Met (phospho-Met, HGF-stimulated PC-3 prostate cancer cells) (Homo sapiens (Human), UniProt P08581); assay: Met autophosphorylation ELISA in PC-3 cells (Example F); format: cell-based; conditions: cellular activity; Met autophosphorylation ELISA in PC-3 cells; read-out: c-Met IC50
Outline: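 Serum-starved (3 h) PC-3 cells were treated 1 h with compounds (8-point curve, 0.3% DMSO), then stimulated with 100 ng/mL human HGF for 10 min. Lysate phospho-Met (panTyr) was measured by sandwich ELISA, normalised to DMSO and reference-inhibitor controls. IC50 came from 4-parameter logistic fit.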

[2] = molecular target: Human MET (residues 956-1390) (Homo sapiens (Human), UniProt P08581); assay: Human Met kinase assay, HTRF KinEase (Example D-2); format: biochemical; conditions: protocol of Example D-2 (other compounds); read-out: c-Met IC50
Chain of Human MET (residues 956-1390) (P08581 956-1390): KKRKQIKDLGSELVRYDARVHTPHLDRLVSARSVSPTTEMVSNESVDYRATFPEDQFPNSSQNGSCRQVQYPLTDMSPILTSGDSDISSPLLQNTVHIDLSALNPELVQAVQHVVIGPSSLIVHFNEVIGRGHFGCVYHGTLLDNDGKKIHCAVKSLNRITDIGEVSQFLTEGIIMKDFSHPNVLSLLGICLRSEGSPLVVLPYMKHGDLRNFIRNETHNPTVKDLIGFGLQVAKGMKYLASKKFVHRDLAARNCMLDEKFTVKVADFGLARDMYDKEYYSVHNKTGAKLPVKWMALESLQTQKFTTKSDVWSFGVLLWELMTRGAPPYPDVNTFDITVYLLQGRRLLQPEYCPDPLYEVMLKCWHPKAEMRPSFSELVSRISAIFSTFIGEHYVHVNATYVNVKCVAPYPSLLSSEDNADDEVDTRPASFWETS
Outline: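 IC50 values come from a 4-parameter logistic fit of the […] fluorescence ratio, set between DMSO (100%) and reference compound at 1 μM (0%). Reactions held MET 956-1390 at 0.1 ng/well, ATP at Km, biotinylated peptide, 5 mM MgCl2, 1 mM MnCl2, 1 mM DTT and 3% DMSO, and ran 40 min at room temperature before streptavidin-XL665/Eu-antibody detection.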

[3] = molecular target: Mer (phospho-Mer, MERTK-transfected 293A cells) (Homo sapiens (Human), UniProt Q12866); assay: Mer autophosphorylation ELISA in transient transfected 293A cells (Example H); format: cell-based; conditions: cellular activity; Mer autophosphorylation ELISA in transient transfected 293A cells
Chain of Mer (phospho-Mer, MERTK-transfected 293A cells) (Q12866 21-999): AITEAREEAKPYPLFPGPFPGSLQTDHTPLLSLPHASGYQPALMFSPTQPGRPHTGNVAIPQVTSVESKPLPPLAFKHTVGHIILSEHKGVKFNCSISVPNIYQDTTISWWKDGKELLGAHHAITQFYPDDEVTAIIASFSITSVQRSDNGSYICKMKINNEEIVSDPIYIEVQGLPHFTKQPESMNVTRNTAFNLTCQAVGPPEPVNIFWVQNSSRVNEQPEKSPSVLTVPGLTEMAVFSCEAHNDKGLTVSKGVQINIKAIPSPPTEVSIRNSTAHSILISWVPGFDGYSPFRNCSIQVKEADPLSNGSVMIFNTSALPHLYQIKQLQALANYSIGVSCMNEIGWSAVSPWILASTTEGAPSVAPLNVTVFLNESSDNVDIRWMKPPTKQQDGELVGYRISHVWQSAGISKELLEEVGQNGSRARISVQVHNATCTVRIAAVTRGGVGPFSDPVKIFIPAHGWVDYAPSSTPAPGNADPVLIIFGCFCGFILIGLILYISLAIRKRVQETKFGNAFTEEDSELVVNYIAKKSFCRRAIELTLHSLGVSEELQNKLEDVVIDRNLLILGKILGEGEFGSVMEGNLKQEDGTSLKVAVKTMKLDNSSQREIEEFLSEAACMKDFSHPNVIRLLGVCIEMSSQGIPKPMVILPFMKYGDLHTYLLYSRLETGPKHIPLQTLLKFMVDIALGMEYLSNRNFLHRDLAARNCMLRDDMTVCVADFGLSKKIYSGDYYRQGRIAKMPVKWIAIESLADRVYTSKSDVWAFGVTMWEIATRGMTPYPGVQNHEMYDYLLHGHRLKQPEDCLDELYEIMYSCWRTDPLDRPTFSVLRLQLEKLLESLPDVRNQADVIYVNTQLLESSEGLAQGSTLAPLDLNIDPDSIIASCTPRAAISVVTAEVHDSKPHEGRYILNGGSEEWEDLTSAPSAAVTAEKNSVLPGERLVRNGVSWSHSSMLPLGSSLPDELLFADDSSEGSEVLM
Outline: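 IC50 from 4-parameter logistic fit of phospho-Mer levels, quantified by ELISA against a phospho-Mer standard in lysates of MERTK-transfected 293A cells. Cells exposed 1 h to 8-point serial dilutions, serum-free, 0.3% DMSO; controls: DMSO (100%) and reference inhibitor (0%).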

Chain of Met (phospho-Met, HGF-stimulated PC-3 prostate cancer cells) (P08581 25-1390): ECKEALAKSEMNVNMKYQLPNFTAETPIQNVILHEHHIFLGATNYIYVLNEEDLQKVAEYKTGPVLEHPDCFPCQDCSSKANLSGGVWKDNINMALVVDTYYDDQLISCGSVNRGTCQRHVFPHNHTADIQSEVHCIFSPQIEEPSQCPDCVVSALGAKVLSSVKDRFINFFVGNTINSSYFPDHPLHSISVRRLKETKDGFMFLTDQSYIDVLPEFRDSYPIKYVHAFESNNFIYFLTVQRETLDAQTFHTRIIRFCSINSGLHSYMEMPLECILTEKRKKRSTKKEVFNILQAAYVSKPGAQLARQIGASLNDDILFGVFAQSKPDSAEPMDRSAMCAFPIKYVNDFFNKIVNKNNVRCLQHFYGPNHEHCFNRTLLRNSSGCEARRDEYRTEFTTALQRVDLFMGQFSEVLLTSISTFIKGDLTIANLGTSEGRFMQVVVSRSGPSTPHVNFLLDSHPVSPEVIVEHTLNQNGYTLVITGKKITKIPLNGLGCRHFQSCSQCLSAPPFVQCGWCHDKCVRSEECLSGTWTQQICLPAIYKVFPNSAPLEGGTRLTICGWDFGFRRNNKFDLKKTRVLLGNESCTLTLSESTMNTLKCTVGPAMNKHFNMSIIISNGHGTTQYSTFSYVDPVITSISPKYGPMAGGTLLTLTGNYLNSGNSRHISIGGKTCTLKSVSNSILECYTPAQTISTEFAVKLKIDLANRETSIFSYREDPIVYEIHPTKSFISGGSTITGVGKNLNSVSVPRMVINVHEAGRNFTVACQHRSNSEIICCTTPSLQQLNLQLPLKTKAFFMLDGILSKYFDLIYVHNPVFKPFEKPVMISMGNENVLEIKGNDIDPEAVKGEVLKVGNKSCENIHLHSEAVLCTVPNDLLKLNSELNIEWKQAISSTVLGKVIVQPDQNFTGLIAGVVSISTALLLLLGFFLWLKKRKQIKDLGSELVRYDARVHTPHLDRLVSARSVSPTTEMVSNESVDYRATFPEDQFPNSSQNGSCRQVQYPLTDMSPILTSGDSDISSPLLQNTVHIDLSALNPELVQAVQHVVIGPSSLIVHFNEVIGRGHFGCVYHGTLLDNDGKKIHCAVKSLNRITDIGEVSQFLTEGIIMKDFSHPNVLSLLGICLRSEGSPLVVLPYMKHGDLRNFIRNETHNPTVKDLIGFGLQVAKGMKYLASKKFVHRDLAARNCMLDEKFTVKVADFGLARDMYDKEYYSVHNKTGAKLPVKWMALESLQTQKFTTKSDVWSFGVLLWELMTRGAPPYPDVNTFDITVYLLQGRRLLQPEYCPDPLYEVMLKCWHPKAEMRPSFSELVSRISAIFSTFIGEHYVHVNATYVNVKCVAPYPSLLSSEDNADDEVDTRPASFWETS

SMILES | IC50 [1] | IC50 [2] | IC50 [3]
COCCOc1nc2c(Oc3ccc(NC(=O)c4c(COC)nc(C)c(-c5ccc(F)cc5C)c4O)cc3F)ccnc2cc1OC [Compound 201, N-[3-Fluoro-4-[[7-methoxy-6-(2-methoxyethoxy)-1,5-naphthyridin-4-yl]oxy]phenyl]-5-(4-fluoro-2-methylphenyl)-4-hydroxy-2-(methoxymethyl)-6-methylpyridine-3-carboxamide] | < 100 nM | < 100 nM | < 100 nM
CCc1nc(C)c(-c2ccc(F)cc2C)c(O)c1C(=O)Nc1ccc(Oc2ccnc3cc(OC)c(OC)nc23)c(F)c1 [Compound 202, N-[4-[(6,7-Dimethoxy-1,5-naphthyridin-4-yl)oxy]-3-fluorophenyl]-2-ethyl-5-(4-fluoro-2-methylphenyl)-4-hydroxy-6-methylpyridine-3-carboxamide] | < 100 nM | 100 to 300 nM | < 100 nM
CCc1nc(C)c(-c2ccc(F)cc2C)c(O)c1C(=O)Nc1ccc(Oc2ccnc3cc(OC)c(OC)nc23)cc1 [Compound 203, N-[4-[(6,7-Dimethoxy-1,5-naphthyridin-4-yl)oxy]phenyl]-2-ethyl-5-(4-fluoro-2-methylphenyl)-4-hydroxy-6-methylpyridine-3-carboxamide] | < 100 nM | 100 to 300 nM | < 100 nM
CCc1nc(C)c(-c2ccc(F)cc2C)c(O)c1C(=O)Nc1ccc(Oc2ccnc3cc(OC)cnc23)c(F)c1 [Compound 204, 2-Ethyl-N-[3-fluoro-4-[(7-methoxy-1,5-naphthyridin-4-yl)oxy]phenyl]-5-(4-fluoro-2-methylphenyl)-4-hydroxy-6-methylpyridine-3-carboxamide] | < 100 nM | 100 to 300 nM | < 100 nM
CCc1nc(C)c(-c2ccc(F)cc2C)c(O)c1C(=O)Nc1ccc(Oc2ccnc3cc(OC)cnc23)cc1 [Compound 205, 2-Ethyl-5-(4-fluoro-2-methylphenyl)-4-hydroxy-N-[4-[(7-methoxy-1,5-naphthyridin-4-yl)oxy]phenyl]-6-methylpyridine-3-carboxamide] | < 100 nM | < 100 nM | < 100 nM
CCc1nc(C)c(-c2ccc(F)cc2C)c(O)c1C(=O)Nc1ccc(Oc2ccnc3ccc(OC)nc23)c(F)c1 [Compound 206, 2-Ethyl-N-[3-fluoro-4-[(6-methoxy-1,5-naphthyridin-4-yl)oxy]phenyl]-5-(4-fluoro-2-methylphenyl)-4-hydroxy-6-methylpyridine-3-carboxamide] | < 100 nM | 100 to 300 nM | < 100 nM
COc1cnc2c(Oc3ccc(NC(=O)c4ccc(C)n(-c5ccc(F)cc5)c4=O)cc3)ccnc2c1 [Compound 216, 1-(4-Fluorophenyl)-N-[4-[(7-methoxy-1,5-naphthyridin-4-yl)oxy]phenyl]-6-methyl-2-oxopyridine-3-carboxamide] | < 100 nM | < 100 nM | < 100 nM
COc1cnc2c(Oc3ccc(NC(=O)c4cnc(CO)c(-c5ccc(F)cc5)c4O)cc3F)ccnc2c1 [Compound 217, N-[3-Fluoro-4-[(7-methoxy-1,5-naphthyridin-4-yl)oxy]phenyl]-5-(4-fluorophenyl)-4-hydroxy-6-(hydroxymethyl)pyridine-3-carboxamide] | < 100 nM | < 100 nM | < 100 nM
COc1cnc2c(Oc3ccc(NC(=O)c4cnc(CO)c(-c5ccc(F)cc5)c4O)cc3)ccnc2c1 [Compound 218, 5-(4-Fluorophenyl)-4-hydroxy-6-(hydroxymethyl)-N-[4-[(7-methoxy-1,5-naphthyridin-4-yl)oxy]phenyl]pyridine-3-carboxamide] | < 100 nM | < 100 nM | < 100 nM
COc1cc2nccc(Oc3ccc(NC(=O)c4ccc(C)n(-c5ccc(F)cc5C)c4=O)cc3F)c2nc1OC [Compound 219, N-[4-[(6,7-Dimethoxy-1,5-naphthyridin-4-yl)oxy]-3-fluorophenyl]-1-(4-fluoro-2-methylphenyl)-6-methyl-2-oxopyridine-3-carboxamide] | < 100 nM | < 100 nM | < 100 nM
COc1cnc2c(Oc3ccc(NC(=O)c4ccc(C)n(-c5ccc(F)cc5C)c4=O)cc3F)ccnc2c1 [Compound 220, N-[3-Fluoro-4-[(7-methoxy-1,5-naphthyridin-4-yl)oxy]phenyl]-1-(4-fluoro-2-methylphenyl)-6-methyl-2-oxopyridine-3-carboxamide] | < 100 nM | < 100 nM | < 100 nM

The remaining lines, values ahead:

IC50 [1] | IC50 [2] | IC50 [3] | SMILES
< 100 nM | < 100 nM | < 100 nM | COCc1nc(C)c(-c2ccc(F)cc2)c(O)c1C(=O)Nc1ccc(Oc2ccnc3cc(OC)c(OC)nc23)cc1 [Compound 190, N-[4-[(6,7-Dimethoxy-1,5-naphthyridin-4-yl)oxy]phenyl]-5-(4-fluorophenyl)-4-hydroxy-2-(methoxymethyl)-6-methylpyridine-3-carboxamide]
< 100 nM | < 100 nM | < 100 nM | COCc1nc(C)c(-c2ccc(F)cc2C)c(O)c1C(=O)Nc1ccc(Oc2ccnc3cc(OC)c(OC)nc23)c(F)c1 [Compound 191, N-[4-[(6,7-Dimethoxy-1,5-naphthyridin-4-yl)oxy]-3-fluorophenyl]-5-(4-fluoro-2-methylphenyl)-4-hydroxy-2-(methoxymethyl)-6-methylpyridine-3-carboxamide]
< 100 nM | < 100 nM | < 100 nM | COCc1nc(C)c(-c2ccc(F)cc2C)c(O)c1C(=O)Nc1ccc(Oc2ccnc3cc(OC)c(OC)nc23)cc1 [Compound 192, N-[4-[(6,7-Dimethoxy-1,5-naphthyridin-4-yl)oxy]phenyl]-5-(4-fluoro-2-methylphenyl)-4-hydroxy-2-(methoxymethyl)-6-methylpyridine-3-carboxamide]
< 100 nM | < 100 nM | < 100 nM | COCc1nc(C)c(-c2ccc(F)cc2C)c(O)c1C(=O)Nc1ccc(Oc2ccnc3cc(OC)cnc23)c(F)c1 [Compound 193, N-[3-Fluoro-4-[(7-methoxy-1,5-naphthyridin-4-yl)oxy]phenyl]-5-(4-fluoro-2-methylphenyl)-4-hydroxy-2-(methoxymethyl)-6-methylpyridine-3-carboxamide]
< 100 nM | < 100 nM | < 100 nM | COCc1nc(C)c(-c2ccc(F)cc2C)c(O)c1C(=O)Nc1ccc(Oc2ccnc3cc(OC)cnc23)cc1 [Compound 194, 5-(4-Fluoro-2-methylphenyl)-4-hydroxy-2-(methoxymethyl)-N-[4-[(7-methoxy-1,5-naphthyridin-4-yl)oxy]phenyl]-6-methylpyridine-3-carboxamide]
< 100 nM | 100 to 300 nM | < 100 nM | COCc1nc(C)c(-c2ccc(F)cc2C)c(O)c1C(=O)Nc1ccc(Oc2ccnc3ccc(OC)nc23)c(F)c1 [Compound 195, N-[3-Fluoro-4-[(6-methoxy-1,5-naphthyridin-4-yl)oxy]phenyl]-5-(4-fluoro-2-methylphenyl)-4-hydroxy-2-(methoxymethyl)-6-methylpyridine-3-carboxamide]
< 100 nM | < 100 nM | < 100 nM | COc1cc2nccc(Oc3ccc(NC(=O)c4cn(C)c(C)c(-c5ccc(F)cc5C)c4=O)cc3)c2nc1OC [Compound 196, N-[4-[(6,7-Dimethoxy-1,5-naphthyridin-4-yl)oxy]phenyl]-5-(4-fluoro-2-methylphenyl)-1,6-dimethyl-4-oxopyridine-3-carboxamide]
< 100 nM | < 100 nM | < 100 nM | CCc1nc(C)c(-c2ccc(F)cc2)c(O)c1C(=O)Nc1ccc(Oc2ccnc3cc(OC)c(OC)nc23)cc1 [Compound 197, N-[4-[(6,7-Dimethoxy-1,5-naphthyridin-4-yl)oxy]phenyl]-2-ethyl-5-(4-fluorophenyl)-4-hydroxy-6-methylpyridine-3-carboxamide]
< 100 nM | < 100 nM | < 100 nM | COCCOc1nc2c(Oc3ccc(NC(=O)c4cn(C)c(C)c(-c5ccc(F)cc5)c4=O)cc3F)ccnc2cc1OC [Compound 198, N-[3-Fluoro-4-[[7-methoxy-6-(2-methoxyethoxy)-1,5-naphthyridin-4-yl]oxy]phenyl]-5-(4-fluorophenyl)-1,6-dimethyl-4-oxopyridine-3-carboxamide]
< 100 nM | < 100 nM | < 100 nM | COCCOc1nc2c(Oc3ccc(NC(=O)c4c(COC)nc(C)c(-c5ccc(F)cc5)c4O)cc3F)ccnc2cc1OC [Compound 199, N-[3-Fluoro-4-[[7-methoxy-6-(2-methoxyethoxy)-1,5-naphthyridin-4-yl]oxy]phenyl]-5-(4-fluorophenyl)-4-hydroxy-2-(methoxymethyl)-6-methylpyridine-3-carboxamide]
< 100 nM | < 100 nM | < 100 nM | COCCOc1nc2c(Oc3ccc(NC(=O)c4cn(C)c(C)c(-c5ccc(F)cc5C)c4=O)cc3F)ccnc2cc1OC [Compound 200, N-[3-Fluoro-4-[[7-methoxy-6-(2-methoxyethoxy)-1,5-naphthyridin-4-yl]oxy]phenyl]-5-(4-fluoro-2-methylphenyl)-1,6-dimethyl-4-oxopyridine-3-carboxamide]

Reference: US12371428B2 (Exelixis, Inc., priority 2019, dated 2025)
